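Step 1: Grow cells in 96-well plates. Step 2: Expose to compound for 48 hours at 5 concentrations. Step 3: Interpolate endpoints linearly; if unreached, use highest concentration. TGI: total growth inhibition.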
How the values were obtained:
Assay in all cases: NCI-60 cell line screen, 48 h
MALME-3M melanoma = test system: MALME-3M melanoma
M14 melanoma = test system: M14 melanoma
SNB-75 CNS = test system: SNB-75 CNS
OVCAR-5 ovarian = test system: OVCAR-5 ovarian
DU-145 prostate = test system: DU-145 prostate
MOLT-4 leukemia = test system: MOLT-4 leukemia
HS 578T breast = test system: HS 578T breast
NCI-H460 lung = test system: NCI-H460 lung
SK-MEL-5 melanoma = test system: SK-MEL-5 melanoma
SN12C renal = test system: SN12C renal
MDA-MB-231 breast = test system: MDA-MB-231 breast
A549 NSCLC = test system: A549 NSCLC
K-562 leukemia = test system: K-562 leukemia
OVCAR-4 ovarian = test system: OVCAR-4 ovarian
NCI-H226 lung = test system: NCI-H226 lung
SR leukemia = test system: SR leukemia
SK-MEL-28 melanoma = test system: SK-MEL-28 melanoma
NCI-H522 lung = test system: NCI-H522 lung
SF-295 CNS = test system: SF-295 CNS
LOX IMVI melanoma = test system: LOX IMVI melanoma
HOP-62 NSCLC = test system: HOP-62 NSCLC
UACC-257 melanoma = test system: UACC-257 melanoma
SF-268 CNS = test system: SF-268 CNS
IGROV1 ovarian = test system: IGROV1 ovarian
NCI/ADR-RES ovarian = test system: NCI/ADR-RES ovarian
KM12 colon = test system: KM12 colon
UO-31 renal = test system: UO-31 renal
SW-620 colon = test system: SW-620 colon
OVCAR-3 ovarian = test system: OVCAR-3 ovarian
HCT-15 colon = test system: HCT-15 colon
ACHN renal = test system: ACHN renal
OVCAR-8 ovarian = test system: OVCAR-8 ovarian
HT29 colon = test system: HT29 colon
MDA-MB-435 = test system: MDA-MB-435
EKVX NSCLC = test system: EKVX NSCLC
HCC-2998 colon = test system: HCC-2998 colon
TK-10 renal = test system: TK-10 renal
SNB-19 CNS = test system: SNB-19 CNS
PC-3 prostate = test system: PC-3 prostate
RXF 393 renal = test system: RXF 393 renal
COLO 205 colon = test system: COLO 205 colon
RPMI-8226 leukemia = test system: RPMI-8226 leukemia
BT-549 breast = test system: BT-549 breast
HL-60(TB) leukemia = test system: HL-60(TB) leukemia
T-47D breast = test system: T-47D breast
A498 renal = test system: A498 renal
NCI-H23 lung = test system: NCI-H23 lung
UACC-62 melanoma = test system: UACC-62 melanoma
SF-539 CNS = test system: SF-539 CNS
SK-MEL-2 melanoma = test system: SK-MEL-2 melanoma
MCF7 breast = test system: MCF7 breast
HCT-116 colon = test system: HCT-116 colon
CCRF-CEM leukemia = test system: CCRF-CEM leukemia
MDA-N = test system: MDA-N
SK-OV-3 ovarian = test system: SK-OV-3 ovarian
U251 CNS = test system: U251 CNS
786-0 renal = test system: 786-0 renal
HOP-92 NSCLC = test system: HOP-92 NSCLC
CAKI-1 renal = test system: CAKI-1 renal

Measured: TGI

O=C(O)C1(Cc2ccccc2)Cc2ccccc2C1
not listed: 786-0 renal | HOP-92 NSCLC | CAKI-1 renal
> 100 µM: all other assays above

NCC(O)CSP(=O)(O)O (stereo not given)
not listed: HCC-2998 colon | SF-539 CNS
> 100 µM: all other assays above

COc1nc2ncc([C@@H](O)[C@H](O)CO)nc2c(=O)n1C
not listed: HCC-2998 colon | NCI-H23 lung
> 100 µM: all other assays above

Reference: PubChem BioAssay (NCI)
